# Assay results: patent EP4778522A1, “USE OF PYRROLOPYRIMIDINE COMPOUND AND COMPOSITION THEREOF” (Guangzhou Joyo Pharmatech Co., Ltd., priority 2023, dated 2025)
# Values joined by “and” are separate entries in the source; they are usually repeats but may differ in a detail not shown here. Equal entries are not always repeated. Marks after values point to notes of the source that are not given here.
# Key:
# [1] = tested on: monobenzone-induced mouse vitiligo model; assay: Monobenzone-induced mouse vitiligo model: hair depigmentation area scoring; type: in vivo, C57BL/6 mice; set-up: Hair depigmentation area scoring: scale not given here
# Method: • 1) Animals: C57BL/6 mice, specific pathogen-free (SPF), with equal numbers of females and males. The mice were 6-8 weeks old at grouping, with 10 mice per group. The animals were provided by Charles River Laboratories. • 2) Reagents, positive drugs and test drugs
# Monobenzone induction method: after 1 week of adaptive feeding of all the animals, modeling was performed and all black hairs on the back of the mice were removed by a shaver. 10 animals were randomly selected as a normal control group and applied with 50 mg of vaseline once a day; and the remaining 80 animals were used for modeling and applied with 50 mg of 40% monobenzone depigmentation ointment once a day. The applying area of the normal control group and the model group was 2 cm*3 cm of the fixed part of the back, and the modeling was continuously performed for 103 days. In order to prevent the phenomenon that the animals lick the drugs, after the animals were applied with a modeling agent, they needed to be separately placed in an independent cage without padding for a period of time to naturally dry the modeling agent, and then they were placed in a rearing cage for normal rearing. During the modeling process, new hairs grown in the alopecic areas of the backs of the mice were shaved by the shaver and then applied with the drug.
# The 40% monobenzone depigmentation ointment was applied every day. After modeling for 53 days, according to a depigmentation area score (see scoring criteria of Table 9), 70 animals successfully modeled in modeling group (score ≥ 2) were randomly divided into 7 groups with 10 mice per group. The mean depigmentation area score of the animals in each group was basically consistent before the administration, and the day of grouping was defined as day 0 of the administration treatment period. Table 8 Grouping and administration regimen
# During the whole experiment process, the mice in normal control group (G1) were applied with 50 mg of vaseline once a day; and the mice in each model group (G2-G8) were applied with 50 mg of 40% monobenzone ointment once a day. After modeling for 53 days, the mice were grouped and subjected to drug treatment after grouping consecutively for 50 days. The modeling operation was maintained during the drug intervention period. The mice were applied with the drug twice a day for treatment at an interval of 6 hours or more. […]
# [2] = tested on: imiquimod-induced C3H/HeJ mice alopecia areata model; assay: Imiquimod-induced mouse alopecia areata model: hair growth; type: in vivo; conditions: for Hair growth rate (%): listed as test drug
# Method: • 1) Animals: female C3H/He mice, SPF, aged 6-8 weeks at grouping. The animals were provided by Beijing Viewsolid Biotech. • 2) Reagents, positive drugs and test drugs
# After one week of adaptive feeding of C3H/HeJ mice: modeling was performed by applying imiquimod ointment to the neck, 3 times a week. The mice were carefully taken out, and about 0.05 g of 5% imiquimod ointment was dipped with a clean medical cotton swab and then applied evenly to the skin on the neck over a range of about 1.5 cm×1.5 cm. Before each application, the local part was cleaned by normal saline to remove the residual drug in the previous time. The continuous administration time was no longer than 10 weeks. When alopecia areata with an area size > 1 cm×1 cm was formed at the administration part, the administration was stopped, proving that a preparation model was successful. The mice in the normal control group were modeled by using blank ointment (vaseline ointment).
# During the period from the first administration to the end of the last administration after the alopecia areata modeling was successful, the alopecia areata part of each mouse was photographed once every 3 days, the photographing distance, angle and magnification times were fixed, and the hair growth of the alopecic areas on the backs of the mice was recorded.
# Visual quantification of the alopecia area images was performed using ImageJ software. The hair growth area (a) and hair loss area (b) were calculated. The hair growth rate was counted and analyzed: hair growth rate (%) = (a/b)* 100%. The newly grown hairs at the alopecia areata part of the mice in each group were scored based on the hair growth rate. Table 14 Scoring criteria of newly grown hairs
# [3] = tested on: monobenzone-induced mouse vitiligo model; assay: Monobenzone-induced mouse vitiligo model: skin pathological analysis of melanin-containing hair follicles; type: in vivo, C57BL/6 mice; conditions: for Number of melanin-containing hair follicles / Proportion of melanin-containing hair follicles (%): 30 mg topical twice a day for 50 days
# Method: The mice were euthanized within 2-4 hours after the last administration, and approximately 1 cm^2 of the skin in the center of the depilated part of the mice was taken and fixed with 4% paraformaldehyde. The animal skin tissues were fixed with 4% paraformaldehyde, dehydrated, embedded with paraffin, sectioned and then subjected to HE staining. The stained sections were photographed by white light panoramic scanning, histopathological changes of the skin tissues and inflammatory cell infiltration were observed, and the number of melanin-containing hair follicles and/or the proportion of the melanin-containing hair follicles in the skin were quantitatively analyzed. The panoramic scanning files were opened by using CaseViewer software, a picture view with the length of about 3.8 mm was randomly selected, and the pictures were saved. The number of all the hair follicles and the number of the melanin-containing hair follicles in the picture were counted respectively by using ipwin32 software. The proportion of the melanin-containing hair follicles was calculated according to the following formula: Proportion of melanin-containing hair follicles = number of melanin-containing follicles/number of all follicles
structure (smiles),measurement,setting,value
CN(c1ncnc2[nH]ccc12)[C@@H]1CCc2cc(C#N)nn2C1 [compound I],Hair depigmentation area scoring,"[1]; Day 0 (before administration), 0.5% compound I gel group",3.80
same,Hair depigmentation area scoring,"[1]; Day 0 (before administration), 1% compound I gel group",3.70
same,Hair depigmentation area scoring,"[1]; Day 0 (before administration), 2% compound I gel group",3.80
same,Hair depigmentation area scoring,"[1]; Day 10, 0.5% compound I gel, 30 mg topical twice a day",3.60 **
same,Hair depigmentation area scoring,"[1]; Day 10, 1% compound I gel, 30 mg topical twice a day",3.90 **
same,Hair depigmentation area scoring,"[1]; Day 10, 2% compound I gel, 30 mg topical twice a day",4.00 **
same,Hair depigmentation area scoring,"[1]; Day 20, 0.5% compound I gel, 30 mg topical twice a day",3.60 **
same,Hair depigmentation area scoring,"[1]; Day 20, 1% compound I gel, 30 mg topical twice a day",3.60 **
same,Hair depigmentation area scoring,"[1]; Day 20, 2% compound I gel, 30 mg topical twice a day",3.50 **
same,Hair depigmentation area scoring,"[1]; Day 30, 0.5% compound I gel, 30 mg topical twice a day",3.30 **
same,Hair depigmentation area scoring,"[1]; Day 30, 1% compound I gel, 30 mg topical twice a day",3.40 **
same,Hair depigmentation area scoring,"[1]; Day 30, 2% compound I gel, 30 mg topical twice a day",3.10 **
same,Hair depigmentation area scoring,"[1]; Day 35, 0.5% compound I gel, 30 mg topical twice a day",3.20 **
same,Hair depigmentation area scoring,"[1]; Day 35, 1% compound I gel, 30 mg topical twice a day",3.10 **
same,Hair depigmentation area scoring,"[1]; Day 35, 2% compound I gel, 30 mg topical twice a day",2.90 **
same,Hair depigmentation area scoring,"[1]; Day 38, 0.5% compound I gel, 30 mg topical twice a day",3.20 **
same,Hair depigmentation area scoring,"[1]; Day 38, 1% compound I gel, 30 mg topical twice a day",2.90 **
same,Hair depigmentation area scoring,"[1]; Day 38, 2% compound I gel, 30 mg topical twice a day",2.60 **
same,Hair depigmentation area scoring,"[1]; Day 41, 0.5% compound I gel, 30 mg topical twice a day",2.90 **
same,Hair depigmentation area scoring,"[1]; Day 41, 1% compound I gel, 30 mg topical twice a day",2.60 **
same,Hair depigmentation area scoring,"[1]; Day 41, 2% compound I gel, 30 mg topical twice a day",2.30 **
same,Hair depigmentation area scoring,"[1]; Day 44, 0.5% compound I gel, 30 mg topical twice a day",2.80 **
same,Hair depigmentation area scoring,"[1]; Day 44, 1% compound I gel, 30 mg topical twice a day",2.50 **
same,Hair depigmentation area scoring,"[1]; Day 44, 2% compound I gel, 30 mg topical twice a day",2.20 **
same,Hair depigmentation area scoring,"[1]; Day 47, 0.5% compound I gel, 30 mg topical twice a day",2.60 **
same,Hair depigmentation area scoring,"[1]; Day 47, 1% compound I gel, 30 mg topical twice a day",2.40 **
same,Hair depigmentation area scoring,"[1]; Day 47, 2% compound I gel, 30 mg topical twice a day",2.20 **
same,mean inhibitory rate of depigmentation area scores,"[1]; Day 50, 0.5% compound I gel, 30 mg (5 mg/cm^2), compared with the model control group",52.0%
same,Hair depigmentation area scoring,"[1]; Day 50, 0.5% compound I gel, 30 mg topical twice a day",2.50 **
same,mean inhibitory rate of depigmentation area scores,"[1]; Day 50, 1% compound I gel, 30 mg (5 mg/cm^2), compared with the model control group",54.9%
same,Hair depigmentation area scoring,"[1]; Day 50, 1% compound I gel, 30 mg topical twice a day",2.30 **
same,mean inhibitory rate of depigmentation area scores,"[1]; Day 50, 2% compound I gel, 30 mg (5 mg/cm^2), compared with the model control group",58.8%
same,Hair depigmentation area scoring,"[1]; Day 50, 2% compound I gel, 30 mg topical twice a day",2.10 **
same,mean inhibitory rate of depigmentation area scores,"[1]; day 50, high concentration (2%) compound I gel, compared with the blank preparation group",51.2%
same,mean inhibitory rate of depigmentation area scores,"[1]; day 50, low concentration (0.5%) compound I gel, compared with the blank preparation group",41.9%
same,mean inhibitory rate of depigmentation area scores,"[1]; day 50, medium concentration (1%) compound I gel, compared with the blank preparation group",46.5%
same,Hair growth rate (%),"[2]; 3 mg/kg oral by gavage twice a day for one month, Day 30",71.62 ± 5.56%
same,amelioration effect (comparison),"[2]; 3 mg/kg oral, hair growth at alopecic area, Day 30",equivalent to that of the positive control drug at the dose of 10 mg/kg
same,Hair growth rate (%),"[2]; 10 mg/kg oral by gavage twice a day for one month, Day 30",83.93 ± 5.58%
same,therapeutic effect (comparison),"[2]; mouse alopecia areata model, oral",superior to that of the positive drug baricitinib
same,therapeutic effect (comparison),"[3]; 1% and 2% compound I gel, reduction of melanin-containing hair follicles in vitiligo model",equivalent to that of 1.5% ruxolitinib and superior to that of 0.03% tacrolimus
same,Number of melanin-containing hair follicles,[3]; 1% compound I gel,30.3
same,Proportion of melanin-containing hair follicles (%),[3]; 1% compound I gel,29.7 ± 9.1% and 29.7%
same,Number of melanin-containing hair follicles,"[3]; 1% compound I gel, listed as Compound I",30.3 ± 14.8
same,"number of the melanin-containing hair follicles, increase compared to the blank preparation group",[3]; 2% compound I gel,37.9%
same,"number of the melanin-containing hair follicles, times that of the model control group",[3]; 2% compound I gel,about 4 times
same,proportion of the melanin-containing hair follicles relative to the model control group,[3]; 2% compound I gel,about twice
same,Number of melanin-containing hair follicles,[3]; 2% compound I gel,26.9*
same,Proportion of melanin-containing hair follicles (%),[3]; 2% compound I gel,30.6 ± 6.2% and 30.6%
same,Number of melanin-containing hair follicles,"[3]; 2% compound I gel, listed as Compound I",26.9 ± 7.4
same,therapeutic effect (comparison),"[3]; 2% compound I gel, proportion of melanin-containing hair follicles",equivalent to that of the ruxolitinib ointment
